Laboratory results as given in patent publication US7907999B2, “Apparatus and method for measuring physiological characteristics of an intact trachea in vitro” (priority 2006, dated 2011).

Key:
[1] = test system: epithelium of intact trachea; test: Transepithelial potential difference (Vt) and impedance (Rt) of intact perfused trachea in vitro; set-up: species or system Hartley guinea pigs; conditions: for effect on transepithelial impedance (Rt) / effect on transepithelial potential difference (Vt): intact guinea pig tracheal segment, each agent tested four times; for effect on transepithelial impedance (Rt): current pulses 20 μA; for effect on transepithelial impedance (Rt) / effect on Vt, summary of bar graphs (on average): agent concentration and bath as in Tables 1 and 2; for effect on transepithelial potential difference (Vt): open-circuit, 37° C., agent concentration and bath (intraluminal/extraluminal) as in Tables 1 and 2; for effect on Vt, summary of bar graphs (on average): means of four preparations
Excerpt: Under open circuit conditions, the first current electrode 60 (FIG. 1) introduces an electrical current into the perfusion liquid flowing into the perfusion device 12. The electrical current flows into the perfusion device, where it emanates from the inlet portion 64 (FIG. 7) and flows across the trachea wall to the second current electrode 62. The first voltage-sensing electrode 56 (FIG. 1) is in electrically continuity with the perfusion liquid in the trachea 14 (via cannula 78, tube 100, and conduits 38 and 46) and therefore senses the electrical potential inside the trachea. The second voltage-sensing electrode 58 senses the electrical potential in the extraluminal bath 54 outside of the trachea. The amplifier 18 calculates the electrical potential difference between the voltage-sensing electrodes 56, 58, which represents the transepithelial potential difference of the trachea. The amplifier 18 can also calculate the transepithelial impedance across the trachea wall based on the applied current and the measured potential difference. […] Hartley guinea pigs were anesthetized by i.p. injection of sodium pentobarbital (65 mg/kg). A 4.2-cm tracheal segment was removed and mounted on a perfusion device 12 at its in situ length. The perfusion device was placed in an extraluminal bath containing a modified Krebs-Henseleit […] solution, and was perfused at 24 ml/min with MKH solution from an intraluminal bath. Water was used as a heat transfer fluid and was supplied to the heat exchanger 20 and the outer jackets of vessels 26, 28 to maintain the temperature of the extraluminal and intraluminal baths at about 37° C. Current pulses (20 μA, 5 s duration, 50 s intervals) were delivered through the current electrodes, while the changes in the transepithelial potential difference (Vt) caused by the current pulses were monitored under open-circuit conditions. Alternatively, and as mentioned above, voltage pulses can be applied across the voltage electrodes under voltage-clamp conditions, while the changes in short circuit current are monitored. The preparation was equilibrated for 2.5 hours to allow Vt and the pressure drop (ΔP) to stabilize before the current pulses were delivered. Basal Vt (the transepithelial voltage in the basal, or steady, state of an unstimulated epithelium) was 14.8±0.8 mV. […] To determine the effects of relaxant agents, when the mechanical and bioelectric responses reached their plateau responses to MCh, the trachea was treated with agents added to the extraluminal or intraluminal bath. The agents used in this example are described in tables 1 and 2 below. The effects of the agents were analyzed statistically using student's paired t-test. P<0.05 was accepted as significant, and is indicated by an asterisk in FIGS. 8-15. The results are presented as means±SE. Each agent was tested four times. Amiloride, NPPB and bumetanide were dissolved in dimethyl sulfoxide (DMSO) (with a final concentration equal to or less than 0.04%). The other agents were prepared in MKH. Terbutaline, histamine, ouabain and bumetanide were added to the extraluminal bath; the other agents were added to the intraluminal bath. Hypersmolar solutions were prepared by adding osmolytes to MKH solution.

[2] = test system: smooth muscle of intact trachea; test: Pressure drop (ΔP) of perfusion liquid through intact trachea: smooth muscle contraction/relaxation; set-up: species or system Hartley guinea pigs; conditions: for effect on differential pressure (ΔP), smooth muscle contraction or relaxation: intact guinea pig tracheal segment perfused at 24 ml/min, agent concentration and bath as in Tables 1 and 2, relaxation observed after pre-contraction with MCh
Excerpt: As described above, the first port 50 of the differential pressure transducer 16 is in fluid communication with the openings 82 in the first cannula 78 and the second port 52 of the differential pressure transducer 16 is in fluid communication with the openings 88 in the second cannula 84. As a result, the differential pressure transducer 16 “sees” the pressure of the perfusion liquid flowing through the trachea 14 at the openings 82 and 88 and can calculate the pressure drop (ΔP) of the perfusion liquid between these two locations (as depicted in FIG. 7). […] Hartley guinea pigs were anesthetized by i.p. injection of sodium pentobarbital (65 mg/kg). A 4.2-cm tracheal segment was removed and mounted on a perfusion device 12 at its in situ length. The perfusion device was placed in an extraluminal bath containing a modified Krebs-Henseleit […] solution, and was perfused at 24 ml/min with MKH solution from an intraluminal bath. Water was used as a heat transfer fluid and was supplied to the heat exchanger 20 and the outer jackets of vessels 26, 28 to maintain the temperature of the extraluminal and intraluminal baths at about 37° C. Current pulses (20 μA, 5 s duration, 50 s intervals) were delivered through the current electrodes, while the changes in the transepithelial potential difference (Vt) caused by the current pulses were monitored under open-circuit conditions. Alternatively, and as mentioned above, voltage pulses can be applied across the voltage electrodes under voltage-clamp conditions, while the changes in short circuit current are monitored. The preparation was equilibrated for 2.5 hours to allow Vt and the pressure drop (ΔP) to stabilize before the current pulses were delivered. Basal Vt (the transepithelial voltage in the basal, or steady, state of an unstimulated epithelium) was 14.8±0.8 mV. […] To determine the effects of relaxant agents, when the mechanical and bioelectric responses reached their plateau responses to MCh, the trachea was treated with agents added to the extraluminal or intraluminal bath. The agents used in this example are described in tables 1 and 2 below. The effects of the agents were analyzed statistically using student's paired t-test. P<0.05 was accepted as significant, and is indicated by an asterisk in FIGS. 8-15. The results are presented as means±SE. Each agent was tested four times. Amiloride, NPPB and bumetanide were dissolved in dimethyl sulfoxide (DMSO) (with a final concentration equal to or less than 0.04%). The other agents were prepared in MKH. Terbutaline, histamine, ouabain and bumetanide were added to the extraluminal bath; the other agents were added to the intraluminal bath. Hypersmolar solutions were prepared by adding osmolytes to MKH solution.

| Structure (SMILES) | effect on transepithelial impedance (Rt) [1] | effect on transepithelial potential difference (Vt) [1] | effect on differential pressure (ΔP), smooth muscle contraction or relaxation [2] | effect on Vt, summary of bar graphs (on average) [1] | effect on transepithelial potential (Vt) during pre-contraction ([1]; MCh 3×10^−7M in the extraluminal bath) | EC50 ([2]; Cavia porcellus, methacholine in the extraluminal bath, read-out: EC50 for pre-contracting the trachea) [nM] |
| --- | --- | --- | --- | --- | --- | --- |
| CCCCNc1cc(C(=O)O)cc(S(N)(=O)=O)c1Oc1ccccc1 [Bumetanide] | did not effect Rt | depolarization | small degree of relaxation of the trachea |  |  |  |
| OC[C@@H](O)[C@@H](O)[C@H](O)[C@H](O)CO [D-M, D-mannitol] | increased Rt | depolarization | relaxation |  |  |  |
| NCCc1c[nH]cn1 [Histamine] | did not effect Rt | variable Vt responses | contraction | did not effect Vt appreciably |  |  |
| O=C(O)c1cc([N+](=O)[O-])ccc1NCCCc1ccccc1 [NPPB] | negligible effect on Rt | depolarization caused by NPPB was slower to develop and greater in magnitude | Neither agent affected ΔP |  |  |  |
| [Cl-].[Na+] [NaCl] | decreased Rt | depolarization | relaxation |  |  |  |
| C[C@@H]1O[C@@H](O[C@H]2C[C@@H](O)[C@]3(CO)[C@H]4[C@H](O)C[C@]5(C)[C@@H](C6=CC(=O)OC6)CC[C@]5(O)[C@@H]4CC[C@]3(O)C2)[C@H](O)[C@H](O)[C@H]1O [Ouabain] | decrease in Rt | immediate depolarization | delayed contraction of the trachea | complete |  |  |
| CC(C)(C)NCC(O)c1cc(O)cc(O)c1 (centres unmarked) [Terbutaline] | did not effect Rt | transient depolarization in three of the four preparations followed by slow hyperpolarization | relaxation | did not effect Vt appreciably |  |  |
| N=C(N)NC(=O)c1nc(Cl)c(N)nc1N [amiloride, Amiloride] | increase in Rt | depolarization of the epithelium | Neither agent affected ΔP |  |  |  |
| CC(=O)OC(C)C[N+](C)(C)C (centres unmarked) [methacholine] |  |  |  |  | induced transepithelial hyperpolarization | 300 |
